This assay relates to NFkB activity. Nature of the assay: Glucocorticoid mediated transrepression of NFkB activity (A549 cells, ELAM promoter alkaline phosphatase reporter, TNFα). In kind it is cell-based. The conditions noted are these: Homo sapiens, A549, 16 h, Human A549 lung epithelial cells, 3 ng/ml human recombinant TNFα, read-out: pIC50, transrepression of NFkB activity (converted). An excerpt: Human A549 lung epithelial cells were engineered to contain a secreted placental alkaline phosphatase gene under the control of the distal region of the NFkB dependent ELAM promoter as previously described in Ray, K. P., Farrow, S., Daly, M., Talabot, F. and Searle, N. “Induction of the E-selectin promoter by interleukin 1 and tumour necrosis factor alpha, and inhibition by glucocorticoids” Biochemical Journal (1997) 328: 707-15.
Compounds were solvated and diluted in DMSO, and transferred directly into assay plates such that the final concentration of DMSO was 0.7%. Following the addition of cells (40K per well), plates were incubated for 1 hr prior to the addition of 3 ng/ml human recombinant TNFα. Following continued incubation for 16 hr, alkaline phosphatase activity was determined by measuring the change in optical density at 405 nm with time following the addition of 0.7 volumes of assay buffer (1 mg/ml p-nitrophenylphosphate dissolved in 1M diethanolamine, 0.28M NaCl, 0.5 mM MgCl2). Dose response curves were constructed from which EC50 values were estimated.

For the compound `Cc1nc(NCC(O)(CC(C)(C)c2cc(F)ccc2O)C(F)(F)F)c2cnn(-c3ccc(F)cc3F)c2n1` (single isomer, unassigned) [Example 25, 2-[3-({[1-(2,4-Difluorophenyl)-6-methyl-1H-pyrazolo[3,4-d]pyrimidin-4-yl]amino}methyl)-4,4,4-trifluoro-3-hydroxy-1,1-dimethylbutyl]-4-fluorophenol], the IC50 is under 100 nM. For `Cc1nc(NCC(O)(CC(C)(C)c2cccc3c2OCC3)C(F)(F)F)c2cnn(-c3ccccc3)c2n1` (stereo not shown) [Example 1, 4-(2,3-Dihydro-1-benzofuran-7-yl)-1,1,1-trifluoro-4-methyl-2-{[(6-methyl-1-phenyl-1H-pyrazolo[3,4-d]pyrimidin-4-yl)amino]methyl}-2-pentanol] the value was under 100 nM; for `Cc1nc(NCC(O)(CC(C)(C)c2cccc3c2OCC3)C(F)(F)F)c2cnn(-c3ccccc3F)c2n1` (stereo not shown) [Example 2, 4-(2,3-Dihydro-1-benzofuran-7-yl)-1,1,1-trifluoro-2-({[1-(2-fluorophenyl)-6-methyl-1H-pyrazolo[3,4-d]pyrimidin-4-yl]amino}methyl)-4-methyl-2-pentanol], under 100 nM; for `Cc1nc(NCC(O)(CC(C)(C)c2cccc3c2OCC3)C(F)(F)F)c2cnn(-c3ccc(F)cc3)c2n1` (stereo not shown) [Example 3, 4-(2,3-Dihydro-1-benzofuran-7-yl)-1,1,1-trifluoro-2-({[1-(4-fluorophenyl)-6-methyl-1H-pyrazolo[3,4-d]pyrimidin-4-yl]amino}methyl)-4-methyl-2-pentanol], under 100 nM. As for `Cc1nc(NCC(O)(CC(C)(C)c2cccc3c2OCC3)C(F)(F)F)c2cnn(-c3ccc(F)cc3F)c2n1` (stereo not shown) [Example 4, 2-({[1-(2,4-Difluorophenyl)-6-methyl-1H-pyrazolo[3,4-d]pyrimidin-4-yl]amino}methyl)-4-(2,3-dihydro-1-benzofuran-7-yl)-1,1,1-trifluoro-4-methyl-2-pentanol], the IC50 was under 100 nM. For the compound `CCc1nc(NCC(O)(CC(C)(C)c2cccc3c2OCC3)C(F)(F)F)c2cnn(-c3ccccc3)c2n1` (stereo not shown) [Example 5, 4-(2,3-Dihydro-1-benzofuran-7-yl)-2-{[(6-ethyl-1-phenyl-1H-pyrazolo[3,4-d]pyrimidin-4-yl)amino]methyl}-1,1,1-trifluoro-4-methyl-2-pentanol], the IC50 is under 100 nM.

For the compound `CCc1nc(NCC(O)(CC(C)(C)c2cccc3c2OCC3)C(F)(F)F)c2cnn(-c3ccccc3F)c2n1` (stereo not shown) [Example 6, 4-(2,3-Dihydro-1-benzofuran-7-yl)-2-({[6-ethyl-1-(2-fluorophenyl)-1H-pyrazolo[3,4-d]pyrimidin-4-yl]amino}methyl)-1,1,1-trifluoro-4-methyl-2-pentanol], the IC50 was under 100 nM. For `CCc1nc(NCC(O)(CC(C)(C)c2cccc3c2OCC3)C(F)(F)F)c2cnn(-c3ccc(F)cc3)c2n1` (stereo not shown) [Example 7, 4-(2,3-Dihydro-1-benzofuran-7-yl)-2-({[6-ethyl-1-(4-fluorophenyl)-1H-pyrazolo[3,4-d]pyrimidin-4-yl]amino}methyl)-1,1-trifluoro-4-methyl-2-pentanol] the value was under 100 nM. For `CCc1nc(NCC(O)(CC(C)(C)c2cccc3c2OCC3)C(F)(F)F)c2cnn(-c3ccc(F)cc3F)c2n1` (stereo not shown) [Example 8, 2-({[1-(2,4-Difluorophenyl)-6-ethyl-1H-pyrazolo[3,4-d]pyrimidin-4-yl]amino}methyl)-4-(2,3-dihydro-1-benzofuran-7-yl)-1,1,1-trifluoro-4-methyl-2-pentanol] the value was under 100 nM.

With `CCc1nc(NCC(O)(CC(C)(C)c2cccc3c2OCC3)C(F)(F)F)c2cnn(-c3cccnc3)c2n1` (stereo not shown) [Example 9, 4-(2,3-Dihydro-1-benzofuran-7-yl)-2-({[6-ethyl-1-(3-pyridinyl)-1H-pyrazolo[3,4-d]pyrimidin-4-yl]amino}methyl)-1,1,1-trifluoro-4-methyl-2-pentanol], the IC50 was under 100 nM.

Take `CCc1nc(NCC(O)(CC(C)(C)c2cccc3c2OCC3)C(F)(F)F)c2cnn(-c3ccncc3)c2n1` (stereo not shown) [Example 10, 4-(2,3-Dihydro-1-benzofuran-7-yl)-2-({[6-ethyl-1-(4-pyridinyl)-1H-pyrazolo[3,4-d]pyrimidin-4-yl]amino}methyl)-1,1,1-trifluoro-4-methyl-2-pentanol]: the IC50 is under 100 nM. As for `CCc1nc(NCC(O)(CC(C)(C)c2cccc3c2OCC3)C(F)(F)F)c2cnn(-c3ccc(F)nc3)c2n1` (stereo not shown) [Example 11, 4-(2,3-Dihydro-1-benzofuran-7-yl)-2-({[6-ethyl-1-(6-fluoro-3-pyridinyl)-1H-pyrazolo[3,4-d]pyrimidin-4-yl]amino}methyl)-1,1,1-trifluoro-4-methyl-2-pentanol], the figure is under 100 nM; as for `CCc1nc(NCC(O)(CC(C)(C)c2cccc3c2OCC3)C(F)(F)F)c2cnn(-c3ccsc3)c2n1` (stereo not shown) [Example 12, 4-(2,3-Dihydro-1-benzofuran-7-yl)-2-({[6-ethyl-1-(3-thienyl)-1H-pyrazolo[3,4-d]pyrimidin-4-yl]amino}methyl)-1,1,1-trifluoro-4-methyl-2-pentanol], under 100 nM. With `COc1ccc(F)cc1C(C)(C)CC(O)(CNc1nc(C)nc2c1cnn2-c1ccccc1)C(F)(F)F` (stereo not shown) [Example 13, 1,1,1-Trifluoro-4-[5-fluoro-2-(methyloxy)phenyl]-4-methyl-2-{[(6-methyl-1-phenyl-1H-pyrazolo[3,4-d]pyrimidin-4-yl)amino]methyl}-2-pentanol], the IC50 was under 100 nM. For `COc1ccc(F)cc1C(C)(C)CC(O)(CNc1nc(C)nc2c1cnn2-c1ccccc1F)C(F)(F)F` (stereo not shown) [Example 14, 1,1,1-Trifluoro-4-[5-fluoro-2-(methyloxy)phenyl]-2-({[1-(2-fluorophenyl)-6-methyl-1H-pyrazolo[3,4-d]pyrimidin-4-yl]amino}methyl)-4-methyl-2-pentanol] the value was under 100 nM; for `COc1ccc(F)cc1C(C)(C)CC(O)(CNc1nc(C)nc2c1cnn2-c1ccc(F)cc1)C(F)(F)F` (stereo not shown) [Example 15, 1,1,1-Trifluoro-4-[5-fluoro-2-(methyloxy)phenyl]-2-({[1-(4-fluorophenyl)-6-methyl-1H-pyrazolo[3,4-d]pyrimidin-4-yl]amino}methyl)-4-methyl-2-pentanol], under 100 nM; for `COc1ccc(F)cc1C(C)(C)CC(O)(CNc1nc(C)nc2c1cnn2-c1ccc(F)cc1F)C(F)(F)F` (stereo not shown) [Example 16, 2-({[1-(2,4-Difluorophenyl)-6-methyl-1H-pyrazolo[3,4-d]pyrimidin-4-yl]amino}methyl)-1,1,1-trifluoro-4-[5-fluoro-2-(methyloxy)phenyl]-4-methyl-2-pentanol], under 100 nM.

As to `COc1ccc(F)cc1C(C)(C)CC(O)(CNc1nc(C)nc2c1cnn2-c1cccnc1)C(F)(F)F` (stereo not shown) [Example 17, 1,1,1-Trifluoro-4-[5-fluoro-2-(methyloxy)phenyl]-4-methyl-2-({[6-methyl-1-(3-pyridinyl)-1H-pyrazolo[3,4-d]pyrimidin-4-yl]amino}methyl)-2-pentanol], the IC50 is under 100 nM.

Regarding `COc1ccc(F)cc1C(C)(C)CC(O)(CNc1nc(C)nc2c1cnn2-c1ccncc1)C(F)(F)F` (stereo not shown) [Example 18, 1,1,1-Trifluoro-4-[5-fluoro-2-(methyloxy)phenyl]-4-methyl-2-({[6-methyl-1-(4-pyridinyl)-1H-pyrazolo[3,4-d]pyrimidin-4-yl]amino}methyl)-2-pentanol], the IC50 was under 100 nM.

The record behind these values is patent US20080292561A1, “Pyrazolo-Pyrimidine Derivatives as Anti-Inflammatory Agents” (Glaxo Group Limited, priority 2005, published 2008).
